This experiment concerns the target T1, MMP9(107-216,391-443) (Homo sapiens, UniProt P14780, DEL217-390).
T1 construct: phenylalanine (107) and a stop codon was introduced, via the 3′ primer, after residue 443; made in house; host or cells: E. coli BL21(DE3)
T1 sequence (P14780 with tags, fused parts or gaps DEL217-390 limits assumed): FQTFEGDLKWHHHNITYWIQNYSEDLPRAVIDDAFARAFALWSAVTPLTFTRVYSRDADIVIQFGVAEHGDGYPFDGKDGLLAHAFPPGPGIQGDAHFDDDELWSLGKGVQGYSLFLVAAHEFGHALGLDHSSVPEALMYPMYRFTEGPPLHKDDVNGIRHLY
In words: Auto-proteolysis (autodegradation) of MMP9 catalytic domain during refolding, storage and crystallisation. It counts as biochemical. The text has this: Another major hurdle in the crystallisation and structure determination of MMP9 is that the MMP9 catalytic domain is aggressively autolytic. We therefore purified wild-type MMP9 in the presence of an inhibitor and then crystallised the purified complex. Addition of an inhibitor during the refolding step following urea denaturation is essential for prevention of N-terminal degradation and the formation of well-ordered crystals.
Following expression in E. coli, MMP9(107-216,391-443) is mainly located in the inclusion body fraction. The E. coli were harvested, washed and lysed and centrifuged to isolate the insoluble protein. The insoluble fraction was then suspended in 6M Urea to solubilise the protein. To generate active MMP9(107-216,391-443) the solubilised material was dialysed sequentially versus 4M, 1M and 0M Urea. […] Post dialysis, the protein was subjected to zinc chelate chromatography which selectively bound the MMP9 catalytic domain. A further chromatography step was then carried out using the tripeptide Pro-Leu-Gly bound to sepharose which bound correctly folded MMP9 catalytic domain. The protein was then eluted by addition of an MMP9 inhibitor. Expression and refolding of the [E402Q]MMP9(107-216,391-443) construct was carried out as for the wild type construct except that no acetohydroxamic acid was added to the refold buffers. […]

“Also recorded” adds a separate entry of the source.

Regarding `CC(=O)NO` [acetohydroxamic acid], the “auto-proteolysis of the N-terminus / autodegradation of the wild type MMP9 protein during refolding” value (added to the refold buffers, wild type MMP9 catalytic domain) is recorded as “prevent autodegradation; also recorded: inhibited auto-proteolysis of the N-terminus of the protein”. Besides, for the setting “storage or crystallisation period, wild type MMP9”, the “autodegradation of the wild type MMP9 protein during storage or during the period of crystallisation” value is reported as “not sufficiently potent to prevent autodegradation”.

The record behind these values is US20040175817A1, “Crystallised catalytic domain of matrix metalloproteinase 9 (mmp9) and the use of its three dimensional structure to design mmp9 modulators” (priority 2001, published 2004).
